This is an account of results in patent publication US20200101182A1, “METHODS FOR INACTIVATING, ON MEDICAL INSTRUMENTS AND DEVICES, VIRUSES CONTAINING RNA AND DNA, AND APPARATUSES FOR IMPLEMENTATING SAME” (priority 2014, published 2020).

The test system of the test is HBV. Put plainly: Photodynamic inactivation of HBV in plasma by methylene blue solution under monochromatic light; HBV DNA in lymphocytes by PCR. The conditions noted are these: for amount of HBV DNA particles in lymphocytes, computed by PCR: HBV containing plasma, 90 minutes. It counts as cell-based, human. Here is the method:
Medical instruments are placed in the cuvette 5 within the aforementioned aqueous solution of methylene blue 6, and the aforementioned door closed. The medical devices in the chamber 4 are then subjected to irradiation by emitters 7 of light energy, such as monochromatic radiation with a maximum specific content of monochromatic light with a wavelength of 590 nm or 660 nm, with a total light output of not less than 280 lm. The exposure time may be set to 90 minutes, e.g., using the aforesaid timer 9. After treatment, in the device 1, the viruses remaining on the medical instruments are completely inactivated, i.e., the viruses lose their ability to infect cells of the human body. Instruments so sterilized are then reliably reused without risk of infecting patients.
Verification steps of the employment of the claimed apparatuses and methods within an installation and carried out on in a biological environment contaminated by viruses, such as blood plasma.
Monochromatic radiation emitters 7 with a range of 590±2 nm are employed. After treatment in the inventive installation method, i.e., within device 1, samples of HBV containing plasma were treated for 90 minutes in a 0.01% solution of methylene blue, and afterward the amount of lymphocytes, computed by Polymerase Chain Reaction (PCR), of HBV DNA particles was zero, i.e., they were not found.
Monochromatic radiation emitters 7 with a range of 590±2 nm are employed. After treatment in the device 1, samples of HBV containing plasma were treated for 90 minutes in a 0.02% solution of methylene blue. As above, the amount of lymphocytes, computed by PCR, of HBV DNA particles were not found.
Monochromatic radiation emitters 7 with a range of 660±2 nm were employed. After treatment in the device 1, as set forth hereinabove, samples of HBV containing plasma were treated for 90 minutes in a 0.01% solution of methylene blue.
Monochromatic radiation emitters 7 with a range of 660±2 nm were employed.

As for `CN(C)c1ccc2nc3ccc(=[N+](C)C)cc-3sc2c1` [methylene blue], the HBV inactivation entry runs as follows: (0.01% methylene blue solution, emitter range 588-592 nm) “full effect”; (0.01% methylene blue solution, emitter range 658-662 nm) “full sterilization treatment effect was reached”; (0.02% methylene blue solution, emitter range 588-592 nm) “full effect”; (0.02% methylene blue solution, emitter range 658-662 nm) “full effect”. Also, the “amount of HBV DNA particles in lymphocytes, computed by PCR” value is “zero” (0.01% solution of methylene blue, emitters 590±2 nm); “found no HBV DNA particles” (0.01% solution of methylene blue, emitters 660±2 nm); “not found” (0.02% solution of methylene blue, emitters 590±2 nm); “no lymphocytes, computed by PCR, of the HBV DNA particles were found” (0.02% solution of methylene blue, emitters 660±2 nm).
